Reference: patent publication US20120190691A1, “PHARMACEUTICAL COMPOSITIONS FOR TREATMENT OF RESPIRATORY AND INFLAMMATORY DISEASES” (priority 2010, published 2012)

Test system: ovalbumin-induced bronchospasm
Test: Ovalbumin-induced bronchospasm (modified Konzett-Rössler) in sensitized anaesthetized guinea pigs
Format: in vivo
Method: Male and female Dunkin-Harley guinea pigs were obtained from the Experimental Animal Breeding Centre of Harlan Winkelmann (Germany). After fasting overnight, but with free access to drinking water, animals with body weight of 400-500 g were used.
Bronchospasm was recorded with a modified version of the method of Konzett-Röβler (described by Walland et al, in “Compensation of muscarinic bronchial effects of talsaclidine by concomitant sympathetic activation in guinea pigs”, European Journal of Pharmacology, Volume 330, Issue 2-3, 9 Jul. 1997, Pages 213-219). The animals were ventilated by means of a piston pump (starling ventilator, Hugo Sachs Elektronik, Germany) at a stroke volume of 1 ml/100 g body weight and at a rate of 60 strokes per min. The tubing which connected the tracheal cannula with the ventilator was provided with a branch leading to the bronchospasm transducer (bronchospasm transducer 7020, Ugo Basile, Italy). The air flow measurement is based on the hot wire anemometer principle. Any air flow will reduce the temperature of the wire, thereby decreasing its resistance in proportion of the flow. As the wire element is one arm of a Weaststone bridge, variation in resistance generate a proportional voltage output which feeds the amplifier/recording system (Notocord-hem, Notocord, France). Blood pressure and heart rate are monitored from a carotid artery in order to check the anesthesia and the variability of the preparation.
Guinea pigs were sensitized on 2 consecutive days with 20 μg ovalbumin (OVA) (Sigma, St. Louis, Mo.) and 20 mg Al(OH)3 in 0.5 ml saline, which were administered subcutaneously. Experiments, which included OVA challenge, were conducted 2 weeks after sensitization. Approximately 1 hour before OVA challenge, the animals were anaesthetized with an intraperitoneal injection of 50 mg/kg pentobarbital. Anesthesia was prolonged by intravenous infusion of pentobarbital (15 mg/kg/h) via the jugular vein. A tracheal cannula was introduced after tracheotomy for artificial ventilation. The internal jugular vein was cannulated for drug injection while the left carotid artery was cannulated for measuring blood pressure and heart rate. 30 minutes after the beginning of air flow and blood pressure measurements, bronchoconstriction is triggered by an OVA challenge given at a fixed dose of 50 μg/kg inhaled.
The test compounds or combinations of compounds were administered orally 2 hours before the OVA challenge.
The control group comprises 12 guinea-pigs, test compounds comprise 2 to 4 guinea-pigs.
Bronchoprotection of the drug (i.e. inhibition of OVA broncho-constriction) is expressed as a percentage of inhibition of the increase in overflow induced by OVA in the control animals.

[1] = Desloratidine 2.0 mg/kg p.o. alone (CRTH2 antagonist (1) 0.0)
[2] = Fexofenadine 0.5 mg/kg p.o. alone (CRTH2 antagonist (1) 0.0)
[3] = Pyrilamine 2.0 mg/kg p.o. alone (CRTH2 antagonist (1) 0.0)

Question: Which results are given for `CN(C)c1nc(Cc2ccc(NC(=O)c3ccc(C(F)(F)F)cc3)cc2)nc(N(C)C)c1CC(=O)O` [CRTH2 antagonist (1), [4,6-bis(dimethylamino)-2-(4-(4-(trifluoromethyl)benzamido)benzyl)pyrimidin-5-yl]-acetic acid]?
Answer: overflow (CRTH2 antagonist (1) 0.01 mg/kg p.o. alone, 2 hours before OVA challenge): 63 mL; overflow (CRTH2 antagonist (1) 0.03 mg/kg p.o. alone, 2 hours before OVA challenge): 65 mL; overflow (CRTH2 antagonist (1) 0.10 mg/kg p.o. alone, 2 hours before OVA challenge): 69 mL; overflow (CRTH2 antagonist (1) 0.30 mg/kg p.o. alone, 2 hours before OVA challenge): 60 mL; overflow (CRTH2 antagonist (1) 1.00 mg/kg p.o. alone, 2 hours before OVA challenge): 65 mL; overflow (CRTH2 antagonist (1) 3.00 mg/kg p.o. alone, 2 hours before OVA challenge): 61 mL; overflow (CRTH2 antagonist (1) 10.00 mg/kg p.o. alone, 2 hours before OVA challenge): 65 mL; effect in this assay by itself (alone, conclusion): no effect; effect by itself on the ovalbumin-induced bronchospasm (up to 10 mg/kg p.o., alone): no effect

Question: With `Clc1ccc2c(c1)CCc1cccnc1C2=C1CCNCC1` [Desloratidine, reference compound] as the compound, how does the bronchoprotection [1] read?
Answer: The bronchoprotection was 43%.

Question: And the overflow [1]?
Answer: Its overflow is 34 mL.

Question: How did the bronchoprotection [2] turn out when `CC(C)(C(=O)O)c1ccc(C(O)CCCN2CCC(C(O)(c3ccccc3)c3ccccc3)CC2)cc1` (stereo not drawn) [Fexofenadine, reference compound] was run?
Answer: The bronchoprotection was 35%.

Question: What about the overflow [2] of the same compound?
Answer: Its overflow is 39 mL.

Question: With `COc1ccc(CN(CCN(C)C)c2ccccn2)cc1` [Pyrilamine, reference compound] as the compound, how does the bronchoprotection [3] read?
Answer: Its bronchoprotection is 45%.

Question: What about the overflow [3] of the same compound?
Answer: The overflow was 33 mL.
